Measured values taken from patent US9119805B2, “Therapy and prevention of problem drinking” (THE UNIVERSITY OF SYDNEY, priority 2009, dated 2015).

Columns and labels:
[1] = tested on: alcohol-dependent adults and non-dependent problem drinkers; experiment: Human Study 3: chronic (4 week) intranasal oxytocin, double-blind placebo-controlled; assay type: in vivo
Protocol: In a third clinical study in humans, a double-blind, randomized and placebo-controlled study is conducted to determine the effect(s) of intranasal oxytocin therapy on alcohol self-administration in a population of alcohol-dependent adults and in a population of non-dependent problem drinkers. This study determines safety and efficacy of chronic intranasal oxytocin therapy for problem drinking.
At least 30 male and female alcohol-dependent adults and non-dependent problem drinkers are recruited according to the protocols described in the preceding examples hereof, to participate in a trial investigating chronic (4 week) intranasal oxytocin therapy for problem drinking e.g., alcohol-dependent subjects having a current diagnosis of alcohol dependence according to the Diagnostic and Statistical Manual of Mental Disorders, Fourth Edition (DSM-IV) as determined by the Structured Clinical Interview for the DSM-IV (SCID-IV), and non-dependent subjects scoring higher than 8 on AUDIT. Exclusion criteria are as indicated in the preceding examples.
All subjects are tested for baseline SCID-IV, AUDIT, PDQ, 90-day TLFB, DASS-21, PANAS, AUQ, FTND, body mass index (BMI), urine toxicology, bloods for baseline oxytocin and cortisol, liver function testing, heart rate (HR), blood pressure (BP), and ECG, and females are pregnancy-tested and their menstrual cycles determined, as described herein above for Study 2. Neuropsychological evaluations e.g., according to CANTAB are also performed. Additionally, subjects are subjected to attention bias assessment task testing, wherein attention biases to alcohol-related cues are determined using e.g., stroop and dot-probe methodology. Subjects also participate in a reward learning computer task, to assess motivation for their alcohol consumption. Based on their test results, subjects are selected for recruitment in the study.
Recruited subjects are administered placebo or oxytocin intranasally (80 IU per day: 40 IU at 9:00 am and 40 IU at 9:00 pm) over a period of 28 days, following completion of baseline measurements. Subjects are instructed on self-administration procedures and given an initial 14 day supply of medication. Participants attend a mid-point assessment where they will receive the remaining 14 day supply of medication. Drug administration commences on the evening of the day of the clinical and medical interview and ceases on a morning 28 days later, after 56 doses have been administered. Subjects are randomized to oxytocin-receiving or placebo-receiving groups, and the groups are stratified according to gender, age, and drinking behavior.
Recruited subjects are also fitted with an actigraphy watch and complete a sleep diary over the following two week period. The actigraphy watches provide information on sleep/wake cycles and light exposure which play an important role in the psychopathology of alcohol misuse. Participants also complete daily self-tests of drinking behavior (AUQ), mood (PANAS), and report on adverse effects of medication. All participants are contacted weekly beginning after 3 days from the commencement of therapy, to determine compliance and adverse events.
Subjects returning to the BMRI on the afternoon of the 14th day of testing are evaluated i.e., the mid-point assessment. Bloods are taken for analysis of plasma oxytocin and cortisol levels as well as basic pathology including liver function and compared to baseline levels before commencement of drug dosing. A urine toxicology test and alcohol breathalyzer test are also performed, to determine whether subjects have been alcohol-free and drug-free at the time of testing. Subjects are tested according to DASS-21, PANAS, 14-day TLFB, and AUQ, and neuropsychological evaluations e.g., according to CANTAB are performed. Changes in mood, drinking behavior and neuropsychology are evaluated for both groups by comparison with baseline evaluations. […]

[2] = tested on: alcohol-dependent adults and non-dependent problem drinkers; experiment: Human Study 1: intranasal oxytocin, stress and alcohol-related cues; assay type: in vivo; settings: during presentation of stress and alcohol cues, versus placebo
Protocol: The underlying mechanisms of intranasal oxytocin during exposure to stress and alcohol related cues in adult alcohol-dependent and adult non-dependent problem drinkers are determined.
In particular, at least twenty male and female adults reporting alcohol dependence according to the Diagnostic and Statistical Manual of Mental Disorders, Fourth Edition (DSM-IV) as determined by the Structured Clinical Interview for the DSM-IV (SCID-IV) are recruited from the community to participate in a laboratory based investigation on the role of oxytocin in stress-related alcohol craving. […]
Subjects returning to the Brain and Mind Research Institute on the afternoon of the final day of testing are evaluated. Bloods and saliva are taken, and plasma oxytocin and cortisol levels and saliva cortisol are determined and compared to baseline levels before commencement of therapy. […] Changes in mood, drinking behavior and neuropsychology are evaluated for both groups by comparison with baseline evaluations. Changes in smoking behavior are evaluated by FTND testing and comparison with baseline evaluations. HR and BP records over the period and at cessation are also determined and compared to baseline levels before commencement of therapy. […]

[3] = dosing period and follow-up, than before therapy
[4] = intranasal 80 IU per day for 28 days

CC[C@H](C)[C@@H]1NC(=O)[C@H](Cc2ccc(O)cc2)NC(=O)[C@@H](N)CSSC[C@@H](C(=O)N2CCC[C@H]2C(=O)N[C@@H](CC(C)C)C(=O)NCC(N)=O)NC(=O)[C@H](CC(N)=O)NC(=O)[C@H](CCC(N)=O)NC1=O [oxytocin]
criteria for problem drinking ([1]; at 3-month or 6-month or 12-month follow-up): do not meet the criteria for problem drinking | heavy drinking days ([1]; dosing period and 3-, 6-, 12-month follow-up, than before therapy): fewer heavy drinking days | cognitive biases to alcohol-related cues ([1]; dosing period and follow-up): reduced cognitive biases | liver function, BMI, and heart function ([1]; dosing period and follow-up): gradually improved | reward driven motivation to consume alcohol ([1]; dosing period and follow-up): reduced reward driven motivation | abstinent days [1, 3]: more abstinent days | period of time between heavy drinking days [1, 3]: longer period of time between heavy drinking days | alcohol intake [1, 4]: reduced alcohol intake | short-term memory function and general mood [1, 4]: enhanced short-term memory function and general mood | impulsivity ([1]; intranasal 80 IU per day for 28 days, dependent and non-dependent drinkers): decreased impulsivity | sleep behavior ([1]; throughout the medication dosing period): improved sleep behavior | anxiety and stress [2]: lower | subjective craving for alcohol [2]: lower
